Data reported in ChEMBL document CHEMBL3865792, “Antioxidant and antitumor activity of trolox, trolox succinate, and α-tocopheryl succinate conjugates with nitroxides” (Eur J Med Chem, 2016).

Tested on: not listed separately
Experiment: Cytotoxicity against human RPMI8226 cells assessed as reduction in cell viability after 72 hrs by MTT assay
Assay type: functional, cell-based
Settings: RPMI-8226, 72 h

SMILES	IC50 [µM]
Cc1c(C)c2c(c(C)c1OC(=O)CCC(=O)NC1CC(C)(C)N([O])C(C)(C)C1)CC[C@@](C)(CCC[C@H](C)CCC[C@H](C)CCCC(C)C)O2	> 300

Tested on: not listed separately
Experiment: Genotoxicity in Escherichia coli PQ37 expressing lacZ gene assessed as ratio of inducible beta-galactosidase activity to alkaline phosphatase activity at 30 mM after 2 hrs by SOS-chromotest relative to control
Assay type: toxicity
Settings: Escherichia coli PQ37 cells expressing lacZ gene, read-out: FC

SMILES	fold induction at 2 h, 30000 µM
Cc1c(C)c2c(c(C)c1OC(=O)CCC(=O)NC1CC(C)(C)N([O])C(C)(C)C1)CC[C@@](C)(CCC[C@H](C)CCC[C@H](C)CCCC(C)C)O2	1.1

Tested on: Salmonella typhimurium
Experiment: Genotoxicity in Salmonella typhimurium TA102 harboring […] mutant assessed as frequency of reversion from histidine auxotrophy to prototrophy at 30 mM after 48 hrs by Ames test (reference value: 209 +/- 10 No _unit)
Assay type: toxicity, organism-based
Settings: salmonella enterica subsp. enterica serovar typhimurium, 30000 µM

SMILES	Activity
Cc1c(C)c2c(c(C)c1OC(=O)CCC(=O)NC1CC(C)(C)N([O])C(C)(C)C1)CC[C@@](C)(CCC[C@H](C)CCC[C@H](C)CCCC(C)C)O2	222

Tested on: not listed separately
Experiment: Ratio of IC50 for human MT4 cells to concentration causing antioxidant activity in Salmonella typhimurium TA102 harboring […] mutant
Assay type: functional
Settings: not given

SMILES	Ratio
Cc1c(C)c2c(c(C)c1OC(=O)CCC(=O)NC1CC(C)(C)N([O])C(C)(C)C1)CC[C@@](C)(CCC[C@H](C)CCC[C@H](C)CCCC(C)C)O2	100 - 1000

Tested on: not listed separately
Experiment: Cytotoxicity against human MCF7 cells assessed as reduction in cell viability after 72 hrs by MTT assay
Assay type: functional, cell-based
Settings: MCF7, 72 h

SMILES	IC50 [µM]
Cc1c(C)c2c(c(C)c1OC(=O)CCC(=O)NC1CC(C)(C)N([O])C(C)(C)C1)CC[C@@](C)(CCC[C@H](C)CCC[C@H](C)CCCC(C)C)O2	> 300

Tested on: not listed separately
Experiment: Cytotoxicity against mouse LMTK cells assessed as reduction in cell viability after 72 hrs by MTT assay
Assay type: toxicity
Settings: not given

SMILES	IC50 at 72 h [µM]
Cc1c(C)c2c(c(C)c1OC(=O)CCC(=O)NC1CC(C)(C)N([O])C(C)(C)C1)CC[C@@](C)(CCC[C@H](C)CCC[C@H](C)CCCC(C)C)O2	> 300

Tested on: not listed separately
Experiment: Cytotoxicity against human HepG2 cells assessed as reduction in cell viability after 72 hrs by MTT assay
Assay type: functional, cell-based
Settings: HepG2, 72 h

SMILES	IC50 [µM]
Cc1c(C)c2c(c(C)c1OC(=O)CCC(=O)NC1CC(C)(C)N([O])C(C)(C)C1)CC[C@@](C)(CCC[C@H](C)CCC[C@H](C)CCCC(C)C)O2	> 300

Tested on: not listed separately
Experiment: Ratio of IC50 for human CEM13 cells to concentration causing antioxidant activity in Salmonella typhimurium TA102 harboring […] mutant
Assay type: functional
Settings: not given

SMILES	Ratio
Cc1c(C)c2c(c(C)c1OC(=O)CCC(=O)NC1CC(C)(C)N([O])C(C)(C)C1)CC[C@@](C)(CCC[C@H](C)CCC[C@H](C)CCCC(C)C)O2	100 - 1000

Tested on: not listed separately
Experiment: Ratio of IC50 for human MCF7 cells to concentration causing antioxidant activity in Salmonella typhimurium TA102 harboring […] mutant
Assay type: functional
Settings: not given

SMILES	Ratio
Cc1c(C)c2c(c(C)c1OC(=O)CCC(=O)NC1CC(C)(C)N([O])C(C)(C)C1)CC[C@@](C)(CCC[C@H](C)CCC[C@H](C)CCCC(C)C)O2	100 - 1000

Tested on: Salmonella enterica subsp. enterica serovar Typhimurium
Experiment: Antioxidant activity in Salmonella typhimurium TA102 harboring […] mutant assessed as inhibition of t-BuO2H-dependant mutant formation at 0.3 uM preincubated with compound followed by t-BuO2H addition after 48 hrs by Ames test
Assay type: functional
Settings: not given

SMILES	inhibition [%]
Cc1c(C)c2c(c(C)c1OC(=O)CCC(=O)NC1CC(C)(C)N([O])C(C)(C)C1)CC[C@@](C)(CCC[C@H](C)CCC[C@H](C)CCCC(C)C)O2	24

Tested on: not listed separately
Experiment: Cytotoxicity against human MCF7 cells assessed as reduction in cell viability at 300 uM after 72 hrs by MTT assay
Assay type: functional
Settings: MCF7, 72 h

SMILES	inhibition at 300 µM [%]
Cc1c(C)c2c(c(C)c1OC(=O)CCC(=O)NC1CC(C)(C)N([O])C(C)(C)C1)CC[C@@](C)(CCC[C@H](C)CCC[C@H](C)CCCC(C)C)O2	28

Tested on: Salmonella enterica subsp. enterica serovar Typhimurium
Experiment: Antioxidant activity in Salmonella typhimurium TA102 harboring […] mutant assessed as inhibition of t-BuO2H-dependant mutant formation at 30 uM preincubated with compound followed by t-BuO2H addition after 48 hrs by Ames test
Assay type: functional
Settings: not given

SMILES	inhibition [%]
Cc1c(C)c2c(c(C)c1OC(=O)CCC(=O)NC1CC(C)(C)N([O])C(C)(C)C1)CC[C@@](C)(CCC[C@H](C)CCC[C@H](C)CCCC(C)C)O2	20

Tested on: not listed separately
Experiment: Ratio of IC50 for human U937 cells to concentration causing antioxidant activity in Salmonella typhimurium TA102 harboring […] mutant
Assay type: functional, U-937
Settings: not given

SMILES	Ratio
Cc1c(C)c2c(c(C)c1OC(=O)CCC(=O)NC1CC(C)(C)N([O])C(C)(C)C1)CC[C@@](C)(CCC[C@H](C)CCC[C@H](C)CCCC(C)C)O2	100 - 1000

Tested on: Salmonella enterica subsp. enterica serovar Typhimurium
Experiment: Antioxidant activity in Salmonella typhimurium TA102 harboring […] mutant assessed as inhibition of t-BuO2H-dependant mutant formation at 3 uM preincubated with compound followed by t-BuO2H addition after 48 hrs by Ames test
Assay type: functional
Settings: not given

SMILES	inhibition [%]
Cc1c(C)c2c(c(C)c1OC(=O)CCC(=O)NC1CC(C)(C)N([O])C(C)(C)C1)CC[C@@](C)(CCC[C@H](C)CCC[C@H](C)CCCC(C)C)O2	29

Tested on: not listed separately
Experiment: Ratio of IC50 for human HEPG2 cells to concentration causing antioxidant activity in Salmonella typhimurium TA102 harboring […] mutant
Assay type: functional
Settings: not given

SMILES	Ratio
Cc1c(C)c2c(c(C)c1OC(=O)CCC(=O)NC1CC(C)(C)N([O])C(C)(C)C1)CC[C@@](C)(CCC[C@H](C)CCC[C@H](C)CCCC(C)C)O2	100 - 1000

Tested on: not listed separately
Experiment: Cytotoxicity against hamster AG17-1 cells assessed as reduction in cell viability at 300 uM after 72 hrs by MTT assay
Assay type: toxicity, cell-based, Cricetulus griseus
Settings: Chinese hamster, read-out: INH

SMILES	cytotoxicity at 72 h, 300 µM [%]
Cc1c(C)c2c(c(C)c1OC(=O)CCC(=O)NC1CC(C)(C)N([O])C(C)(C)C1)CC[C@@](C)(CCC[C@H](C)CCC[C@H](C)CCCC(C)C)O2	30

Tested on: not listed separately
Experiment: Cytotoxicity against hamster AG17-1 cells assessed as reduction in cell viability after 72 hrs by MTT assay
Assay type: toxicity, cell-based, Cricetulus griseus
Settings: Chinese hamster

SMILES	IC50 at 72 h [µM]
Cc1c(C)c2c(c(C)c1OC(=O)CCC(=O)NC1CC(C)(C)N([O])C(C)(C)C1)CC[C@@](C)(CCC[C@H](C)CCC[C@H](C)CCCC(C)C)O2	> 300

Tested on: not listed separately
Experiment: Cytotoxicity against human RPMI8226 cells assessed as reduction in cell viability at 300 uM after 72 hrs by MTT assay
Assay type: functional
Settings: RPMI-8226, 72 h

SMILES	inhibition at 300 µM [%]
Cc1c(C)c2c(c(C)c1OC(=O)CCC(=O)NC1CC(C)(C)N([O])C(C)(C)C1)CC[C@@](C)(CCC[C@H](C)CCC[C@H](C)CCCC(C)C)O2	13

Tested on: not listed separately
Experiment: Cytotoxicity against human CEM13 cells assessed as reduction in cell viability after 72 hrs by MTT assay
Assay type: functional, cell-based
Settings: CEM13, 72 h

SMILES	IC50 [µM]
Cc1c(C)c2c(c(C)c1OC(=O)CCC(=O)NC1CC(C)(C)N([O])C(C)(C)C1)CC[C@@](C)(CCC[C@H](C)CCC[C@H](C)CCCC(C)C)O2	146

Tested on: not listed separately
Experiment: Cytotoxicity against human MT4 cells assessed as reduction in cell viability after 72 hrs by MTT assay
Assay type: functional, cell-based
Settings: MT4, 72 h

SMILES	IC50 [µM]
Cc1c(C)c2c(c(C)c1OC(=O)CCC(=O)NC1CC(C)(C)N([O])C(C)(C)C1)CC[C@@](C)(CCC[C@H](C)CCC[C@H](C)CCCC(C)C)O2	53

Tested on: not listed separately
Experiment: Cytotoxicity against human U937 cells assessed as reduction in cell viability after 72 hrs by MTT assay
Assay type: functional, cell-based
Settings: U-937, 72 h

SMILES	IC50 [µM]
Cc1c(C)c2c(c(C)c1OC(=O)CCC(=O)NC1CC(C)(C)N([O])C(C)(C)C1)CC[C@@](C)(CCC[C@H](C)CCC[C@H](C)CCCC(C)C)O2	76

Tested on: not listed separately
Experiment: Cytotoxicity against human HepG2 cells assessed as reduction in cell viability at 300 uM after 72 hrs by MTT assay
Assay type: functional
Settings: HepG2, 72 h

SMILES	inhibition at 300 µM [%]
Cc1c(C)c2c(c(C)c1OC(=O)CCC(=O)NC1CC(C)(C)N([O])C(C)(C)C1)CC[C@@](C)(CCC[C@H](C)CCC[C@H](C)CCCC(C)C)O2	5

Tested on: not listed separately
Experiment: Cytotoxicity against mouse LMTK cells assessed as reduction in cell viability at 300 uM after 72 hrs by MTT assay
Assay type: toxicity
Settings: read-out: INH

SMILES	cytotoxicity at 72 h, 300 µM [%]
Cc1c(C)c2c(c(C)c1OC(=O)CCC(=O)NC1CC(C)(C)N([O])C(C)(C)C1)CC[C@@](C)(CCC[C@H](C)CCC[C@H](C)CCCC(C)C)O2	19

Tested on: not listed separately
Experiment: Ratio of IC50 for human RPMI8226 cells to concentration causing antioxidant activity in Salmonella typhimurium TA102 harboring […] mutant
Assay type: functional, RPMI-8226
Settings: not given

SMILES	Ratio
Cc1c(C)c2c(c(C)c1OC(=O)CCC(=O)NC1CC(C)(C)N([O])C(C)(C)C1)CC[C@@](C)(CCC[C@H](C)CCC[C@H](C)CCCC(C)C)O2	100 - 1000
